According to US20220098674A1, “METHODS AND COMPOSITIONS FOR SELECTING A CANCER TREATMENT IN A SUBJECT SUFFERING FROM CANCER” (INSERM (INSTITUT NATIONAL DE LA SANTÉ ET DR LA RECHERCH …, priority 2019, published 2022):

Key:
[1] = tested on: RCC4+pVHL, RCC4 and RCC4 siVDAC1 cells; test: Sensitivity of RCC4 cell variants to sunitinib or 3BP treatment; format: cell-based
Method: RCC4/pVHL and 786-O/pVHL cells were grown in Dulbecco's Modified Eagle's Medium (DMEM) (Gibco-BRL) supplemented with 10% fetal bovine serum with penicillin G (50 U/ml) and streptomycin sulfate (50 μg/ml). ACHN and A498 RCC cell lines were purchased from the ATCC (Mar. 3, 2013). The RCC10 cell line was a kind gift from Dr. W. H. Kaelin (Dana-Farber Cancer Institute, Boston, Mass.). An INVIVO2 200 anaerobic workstation (Ruskinn Technology Biotrace International Plc) set at 1% oxygen, 94% nitrogen and 5% carbon dioxide was used for hypoxic conditions.
Cells (5000-10000) were plated on 60 mm dishes and incubated at 37° C., 5% CO2 for colony formation. After 10 days, colonies were fixed with 10% (v/v) methanol for 15 min and stained with 5% Giemsa (Sigma) for 30 min for colony visualization.
Sunitinib, a vascular endothelial growth factor receptor inhibitor is widely used for patients with metastatic RCC. RCC4+pVHL−, RCC4− and RCC4 siVDAC1− cells were treated with 1.0 and 1.5 μM of sunitinib (Data not shown). […] As RCC4 cells with VDAC1-ΔC present a higher glycolysis than RCC4+pVHL cells, we used 3 Bromopyruvate (3BP), an halogenated analogue of pyruvic acid that enters cells like a lactate via monocarboxylic acid transporters, to block glycolysis.

[2] = tested on: RCC4 siVDAC1 cells; test: Invasion assay (aggressiveness) of RCC4 siVDAC1 cells treated with 3BP; format: cell-based
Method: The invasion assay was performed using cell culture inserts with 8.0 μm pore transparent PET membrane coated with 10 μg/mL fibronectin. Inserts were coated with 2 μg/μL of Matrigel and incubated for 3 h at 37° C. in a CO2 incubator. Briefly, overnight serum-starved cells (8×10^4 cells) were seeded into the top chamber in medium without FBS, while medium with 10% FBS was present in the bottom chamber. The cells were incubated for 24 h. Media and remaining cells were removed from the top chamber with a cotton swab and washed twice with PBS. The bottom chamber was aspirated and washed twice with PBS. Inserts were fixed with 4% PFA. Invasiveness was assayed in triplicate for each condition, in at least three independent experiments. Cells that invaded the Matrigel and migrated through the filter and adhered to the lower surface were stained for 10 min with 0.5% crystal violet in 25% methanol. Inserts were rinsed in distilled water until no additional stain leached and were air-dried overnight. Crystal violet was extracted from the invading cells by adding 600 μl of 0.1M sodium citrate in 10% acetic acid. Absorbance was measured spectrophotometrically at 585 nm using Spectronic GENESYS 5 (Milton Roy, Rochester, N.Y.). Microarray experiments Microarray experiments were already described (22). […]

[3] = tested on: RCC4 cells; test: Cell death in RCC4 cells, siRNA to VDAC1 or AEP combined with 3BP; format: cell-based; details: 3BP combined with siRNA to VDAC1 or AEP
Source text: In patients who progressively lose the primary cilium, this loss generated increased metabolism and greater resistance to cell death, promoting tumor growth. Since this loss was related to the presence of the cleaved form of VDAC1, the strategy would therefore be to prevent the cleavage of VDAC1 to restore the presence of the primary cilium. […] Indeed, we characterized a signature related to EMT that can explain the aggressive phenotype of the tumors of these patients. However, remodeling of metabolism was changed. Although cancer metabolism is a hallmark of cancer, it has been shown that aberrant metabolism supports EMT (47,48). […] It is therefore possible to envisage specific treatment for these groups: Temsirolimus (50) or Everolimus, specific inhibitors of mTOR (51) that block proliferation, in combination with small molecule inhibitors that prevent EMT such as EW-7197 or IN-1130, through a block in TGFβ1 and 2, have already been used in metastatic breast and lung cancer (52). By maintaining only one metabolic pathway, cancer cells with a GLI1+/IFT20+ signature offer a metabolic vulnerability that it would be wise to exploit. […] Finally, combination of an immune checkpoint inhibitor such as atezolizumab or nivolumab (an anti-PDL1 or PD1 inhibitor) alone or plus 3-bromopyruvate could be evaluated on PC+ patients with such reduced overall survival (FIG. 1). […]

[4] = tested on: ccRCC; test: Survival (PFS, OS) of sunitinib-treated ccRCC patients by GLI1/IFT20 primary cilium signature, clinical trial SUVEGIL; format: in vivo, human; details: ccRCC patients treated with sunitinib, no VDAC1-ΔC
Method: FIG. 3. Patients with primary cilium signature present a higher immunogenicity compared to no primary cilium signature and a better response to immunotherapy. (A) Progression free-survival (PFS) and (B) Overall survival (OS) for the primary cilium signature was calculated from patients of the TCGA cohort C treated with sunitinib using the GLI1/IFT20 signature. Statistical significance (p-value) is indicated. The median survival is also indicated.
The Student's t-test was used to compare continuous variables and chi-square test, or Fisher's exact test (when the conditions for use of the χ2-test were not fulfilled), were used for categorical variables. To guarantee the independence of primary cilium as a prognostic factor, the multivariate analysis was performed using Cox regression adjusted to the stage and age. DFS was defined as the time from surgery to the appearance of metastasis. OS was defined as the time between surgery and the date of death from any cause, censoring those alive at last follow-up. The Kaplan-Meier method was used to produce survival curves and analyses of censored data were performed using Cox models. All analyses were performed using R software, version 3.2.2 (Vienna, Austria, https://www.r-project.org/).
We thus checked if PC+ patients with a GLI1+/IFT20+ signature and no VDAC1-ΔC are resistant or sensitive to sunitinib.

SMILES	sensitivity to 3BP ([1]; cells presenting no VDAC1-ΔC or less VDAC1, 10 and 25 μM)	aggressiveness (invasion) compared to control [2]	cell death [3]	survival (PFS and OS) of PC+ patients versus PC− groups [4]	sensitivity to sunitinib ([1]; RCC4+pVHL, RCC4 and RCC4 siVDAC1 cells (all these cells), 1.0 and 1.5 μM)	sensitivity to sunitinib ([1]; RCC4 cells expressing no VDAC1-ΔC)	sensitivity to sunitinib, relative ([1]; cells with VDAC1-ΔC versus RCC4+pVHL cells or cells with no VDAC1-ΔC or less VDAC1, 1.0 and 1.5 μM)
O=C(O)C(=O)CBr [3BP, 3-bromopyruvate]	highly sensitive	strongly decreased	increased cell death				
CCN(CC)CCNC(=O)c1c(C)[nH]c(/C=C2\C(=O)Nc3ccc(F)cc32)c1C [sunitinib, N-[2-(diethylamino)ethyl]-5-{[(3Z)-5-fluoro-2-oxo-2,3-dihydro-1H-indol-3-ylidene]methyl}-2,4-dimethyl-1H-pyrrole-3-carboxamide]				lower survival	sensitive	less sensitive	slightly more sensitive
